Results taken from ChEMBL document CHEMBL1201862, “PubChem BioAssay data set” (2004).
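1) Cells in 96-well plates. 2) Compound, 48 h, 5 concentrations. 3) Linear interpolation between surrounding doses. 4) Unreached endpoint = highest concentration. The concentration for 50% growth inhibition is given as GI50.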 The source made the active and inactive calls. Cut-off read from the data, not from the text of the source: active = GI50 up to about 1.1 µM and inactive = higher.

What was measured:
Assay in all cases: inhibition of tumour cell growth, NCI panel, 48 h
UACC-257 = test system: UACC-257
SK-MEL-5 = test system: SK-MEL-5
EKVX = test system: EKVX
RXF 631 = test system: RXF 631
HCT-116 = test system: HCT-116
SF-268 = test system: SF-268
CCRF-CEM = test system: CCRF-CEM
DU-145 = test system: DU-145
Hs-578T = test system: Hs-578T
DMS-273 = test system: DMS-273
U-251 = test system: U-251
NCI-H460 = test system: NCI-H460
IGROV-1 = test system: IGROV-1
HOP-18 = test system: HOP-18
RXF 393 = test system: RXF 393
BT-549 = test system: BT-549
SR = test system: SR
MOLT-4 = test system: MOLT-4
HCT-15 = test system: HCT-15
KM-20L2 = test system: KM-20L2
SNB-19 = test system: SNB-19
LXFL 529 = test system: LXFL 529
KM12 = test system: KM12
OVCAR-3 = test system: OVCAR-3
PC-3 = test system: PC-3
OVCAR-8 = test system: OVCAR-8
HT-29 = test system: HT-29
RPMI-8226 = test system: RPMI-8226
DLD-1 = test system: DLD-1
A549 = test system: A549
SN12C = test system: SN12C
SF-295 = test system: SF-295
MDA-MB-231 = test system: MDA-MB-231
UO-31 = test system: UO-31
HCC 2998 = test system: HCC 2998
UACC-62 = test system: UACC-62
K562 = test system: K562
CAKI-1 = test system: CAKI-1
SK-MEL-28 = test system: SK-MEL-28
SF-539 = test system: SF-539
TK-10 = test system: TK-10
COLO 205 = test system: COLO 205
HL-60 = test system: HL-60
Malme-3M = test system: Malme-3M
M14 = test system: M14
NCI-H23 = test system: NCI-H23
SNB-75 = test system: SNB-75
ACHN = test system: ACHN
OVCAR-4 = test system: OVCAR-4
HOP-62 = test system: HOP-62
NCI-H522 = test system: NCI-H522
SNB-78 = test system: SNB-78
LOX IMVI = test system: LOX IMVI
MDA-N = test system: MDA-N
OVCAR-5 = test system: OVCAR-5
SK-OV-3 = test system: SK-OV-3
SK-MEL-2 = test system: SK-MEL-2
A498 = test system: A498
786-0 = test system: 786-0
HOP-92 = test system: HOP-92
SW-620 = test system: SW-620
M19-MEL = test system: M19-MEL
T47D = test system: T47D
NCI-H226 = test system: NCI-H226
XF498 = test system: XF498
DMS-114 = test system: DMS-114

**Q.** With `BrCC[N+]12CCCN1CCC2` as the compound, how does the GI50 (UACC-257) read?
**A.** 18.7 µM (inactive)

**Q.** What about the GI50 (SK-MEL-5) of the same compound?
**A.** 18 µM (inactive)

**Q.** And the GI50 (EKVX)?
**A.** 21.6 µM (inactive)

**Q.** And the GI50 (RXF 631)?
**A.** 21.1 µM (inactive)

**Q.** And the GI50 (HCT-116)?
**A.** 5.66 µM (inactive)

**Q.** What about the GI50 (SF-268) of the same compound?
**A.** 24.9 µM (inactive)

**Q.** What about the GI50 (CCRF-CEM) of the same compound?
**A.** 1.59 µM (inactive)

**Q.** And the GI50 (DU-145)?
**A.** 45.3 µM (inactive)

**Q.** What about the GI50 (Hs-578T) of the same compound?
**A.** 0.692 µM (active)

**Q.** What about the GI50 (DMS-273) of the same compound?
**A.** 18.7 µM (inactive)

**Q.** And the GI50 (U-251)?
**A.** 16.5 µM (inactive)

**Q.** What about the GI50 (NCI-H460) of the same compound?
**A.** 22.3 µM (inactive)

**Q.** And the GI50 (IGROV-1)?
**A.** 22 µM (inactive)

**Q.** And the GI50 (HOP-18)?
**A.** 8.73 µM (inactive)

**Q.** What about the GI50 (RXF 393) of the same compound?
**A.** 14 µM (inactive)

**Q.** What about the GI50 (BT-549) of the same compound?
**A.** 14.4 µM (inactive)

**Q.** What about the GI50 (SR) of the same compound?
**A.** 1.68 µM (inactive)

**Q.** And the GI50 (MOLT-4)?
**A.** 3.43 µM (inactive)

**Q.** What about the GI50 (HCT-15) of the same compound?
**A.** 12.3 µM

**Q.** And the GI50 (KM-20L2)?
**A.** 20.6 µM (inactive)

**Q.** What about the GI50 (SNB-19) of the same compound?
**A.** > 43 µM (inactive)

**Q.** What about the GI50 (LXFL 529) of the same compound?
**A.** 2.88 µM (inactive)

**Q.** What about the GI50 (KM12) of the same compound?
**A.** > 67.3 µM (inactive)

**Q.** And the GI50 (OVCAR-3)?
**A.** 13.9 µM (inactive)

**Q.** What about the GI50 (PC-3) of the same compound?
**A.** 17.1 µM (inactive)

**Q.** What about the GI50 (OVCAR-8) of the same compound?
**A.** 19 µM (inactive)

**Q.** What about the GI50 (HT-29) of the same compound?
**A.** 10.8 µM (inactive)

**Q.** What about the GI50 (RPMI-8226) of the same compound?
**A.** 1.53 µM (inactive)

**Q.** And the GI50 (DLD-1)?
**A.** 4.38 µM (inactive)

**Q.** What about the GI50 (A549) of the same compound?
**A.** 41.1 µM (inactive)

**Q.** What about the GI50 (SN12C) of the same compound?
**A.** 14.7 µM (inactive)

**Q.** What about the GI50 (SF-295) of the same compound?
**A.** > 72.9 µM (inactive)

**Q.** And the GI50 (MDA-MB-231)?
**A.** 17.5 µM (inactive)

**Q.** What about the GI50 (UO-31) of the same compound?
**A.** 13.8 µM (inactive)

**Q.** What about the GI50 (HCC 2998) of the same compound?
**A.** 22.3 µM (inactive)

**Q.** And the GI50 (UACC-62)?
**A.** 8.83 µM (inactive)

**Q.** And the GI50 (K562)?
**A.** 2.9 µM (inactive)

**Q.** What about the GI50 (CAKI-1) of the same compound?
**A.** 1.03 µM (active)

**Q.** What about the GI50 (SK-MEL-28) of the same compound?
**A.** 10.7 µM (inactive)

**Q.** What about the GI50 (SF-539) of the same compound?
**A.** 15.2 µM (inactive)

**Q.** And the GI50 (TK-10)?
**A.** 14.5 µM (inactive)

**Q.** And the GI50 (COLO 205)?
**A.** 4.14 µM (inactive)

**Q.** What about the GI50 (HL-60) of the same compound?
**A.** 2.9 µM (inactive)

**Q.** What about the GI50 (Malme-3M) of the same compound?
**A.** 2.32 µM (inactive)

**Q.** And the GI50 (M14)?
**A.** 11 µM (inactive)

**Q.** And the GI50 (NCI-H23)?
**A.** 18.5 µM (inactive)

**Q.** And the GI50 (SNB-75)?
**A.** 16.7 µM (inactive)

**Q.** What about the GI50 (ACHN) of the same compound?
**A.** 7.26 µM (inactive)

**Q.** And the GI50 (OVCAR-4)?
**A.** 4.23 µM (inactive)

**Q.** And the GI50 (HOP-62)?
**A.** > 47.3 µM (inactive)

**Q.** And the GI50 (NCI-H522)?
**A.** 0.664 µM (active)

**Q.** What about the GI50 (SNB-78) of the same compound?
**A.** 16.2 µM (inactive)

**Q.** And the GI50 (LOX IMVI)?
**A.** 11.5 µM (inactive)

**Q.** And the GI50 (MDA-N)?
**A.** 16.1 µM (inactive)

**Q.** What about the GI50 (OVCAR-5) of the same compound?
**A.** 21.5 µM (inactive)

**Q.** What about the GI50 (SK-OV-3) of the same compound?
**A.** > 65.5 µM (inactive)

**Q.** And the GI50 (SK-MEL-2)?
**A.** 20.5 µM (inactive)

**Q.** And the GI50 (A498)?
**A.** 45.9 µM (inactive)

**Q.** What about the GI50 (786-0) of the same compound?
**A.** 9.06 µM (inactive)

**Q.** And the GI50 (HOP-92)?
**A.** 5.22 µM (inactive)

**Q.** And the GI50 (SW-620)?
**A.** 2.28 µM (inactive)

**Q.** And the GI50 (M19-MEL)?
**A.** 16.9 µM (inactive)

**Q.** And the GI50 (T47D)?
**A.** 9.93 µM (inactive)

**Q.** And the GI50 (NCI-H226)?
**A.** 33.2 µM (inactive)

**Q.** What does the source list for `COC1CC(OS(=O)(=O)c2ccc(C)cc2)C(OC(=O)c2ccccc2)C(C)O1` (configuration not stated)?
**A.** GI50 (UACC-257): > 10 µM (inactive); GI50 (SK-MEL-5): > 10 µM (inactive); GI50 (EKVX): > 10 µM (inactive); GI50 (HCT-116): > 10 µM (inactive); GI50 (SF-268): > 100 µM (inactive); GI50 (CCRF-CEM): > 10 µM (inactive); GI50 (DMS-273): > 10 µM (inactive); GI50 (XF498): > 100 µM (inactive); GI50 (U-251): > 10 µM (inactive); GI50 (NCI-H460): > 10 µM (inactive); GI50 (IGROV-1): > 10 µM (inactive); GI50 (HOP-18): > 10 µM (inactive); GI50 (RXF 393): 88.5 µM (inactive); GI50 (SR): > 10 µM (inactive); GI50 (MOLT-4): > 10 µM (inactive); GI50 (HCT-15): > 10 µM; GI50 (KM-20L2): > 10 µM (inactive); GI50 (SNB-19): > 10 µM (inactive); GI50 (LXFL 529): > 10 µM (inactive); GI50 (KM12): > 10 µM (inactive); GI50 (OVCAR-3): > 10 µM (inactive); GI50 (OVCAR-8): > 10 µM (inactive); GI50 (HT-29): > 10 µM (inactive); GI50 (RPMI-8226): > 100 µM (inactive); GI50 (DLD-1): > 10 µM (inactive); GI50 (A549): > 10 µM (inactive); GI50 (SN12C): > 10 µM (inactive); GI50 (SF-295): > 100 µM (inactive); GI50 (UO-31): > 10 µM (inactive); GI50 (HCC 2998): > 10 µM (inactive); GI50 (UACC-62): > 100 µM (inactive); GI50 (K562): > 10 µM (inactive); GI50 (CAKI-1): > 10 µM (inactive); GI50 (SK-MEL-28): > 10 µM (inactive); GI50 (SF-539): > 10 µM (inactive); GI50 (TK-10): > 10 µM (inactive); GI50 (COLO 205): > 10 µM (inactive); GI50 (HL-60): > 10 µM (inactive); GI50 (DMS-114): > 100 µM (inactive); GI50 (Malme-3M): > 10 µM (inactive); GI50 (M14): > 10 µM (inactive); GI50 (NCI-H23): > 10 µM (inactive); GI50 (SNB-75): 99.5 µM (inactive); GI50 (ACHN): > 10 µM (inactive); GI50 (OVCAR-4): > 10 µM (inactive); GI50 (HOP-62): > 10 µM (inactive); GI50 (NCI-H522): > 10 µM (inactive); GI50 (SNB-78): > 10 µM (inactive); GI50 (LOX IMVI): > 10 µM (inactive); GI50 (OVCAR-5): > 10 µM (inactive); GI50 (SK-OV-3): > 10 µM (inactive); GI50 (SK-MEL-2): > 10 µM (inactive); GI50 (A498): > 10 µM (inactive); GI50 (786-0): > 10 µM (inactive); GI50 (HOP-92): 99.1 µM (inactive); GI50 (SW-620): > 10 µM (inactive); GI50 (M19-MEL): > 10 µM (inactive); GI50 (NCI-H226): > 10 µM (inactive)
